Results as given in patent US20030064954A1, “Cationic amphiphilic 1,4-dihydropyridine derivatives useful for delivery of nucleotide containing compounds” (priority 2000, published 2003).

Tests used:
[1] = test system: D407 (human retinal pigment epithelial) cells; assay: In vitro transfection of plasmid DNA, β-galactosidase activity per well; format: cell-based; conditions: D 407
Protocol: The complexes at different derivative/DNA charge ratios for transfection procedure were prepared just before use in 50 mM MES—50 mM HEPES—75 mM NaCl buffer, pH 7.2 in separate 96 well plates. One hour after changing the serum-free medium with 10% serum the complexes were added to the cells at 370C. Dose of DNA per well was 0.6 μg. After 5 h the complexes were removed, the cells were washed with PBS, and the normal growth medium was added. After 45 h of incubation at 37° C. the cells were lysed with 2% Triton X 100, twice deep frozen and the β-galactosidase activity in each well was determined spectrofotometrically with ELx800 automated microplate reader (Bio-Tex Instruments Inc., Winooski, Vt. USA) by monitoring the hydrolysis of o-nitrophenylgalactopyranoside (oNPG) at 405 nm. Purified β-galactosidase from E.coli was used to construct a standard curve and to calculate 9-galactosidase activity in the transfected cells. […] Transfection efficiencies are given as percentage in comparison to transfection efficiency of Lipofectin^R.

D 407 cells = assay: Cytotoxicity of amphiphile/DNA complexes, percentage of survived cells; format: cell-based, human; set-up: concentration or dose not given beside the values
[2] = test system: CV-1P (African monkey green kidney fibroblasts cells); assay: In vitro transfection of plasmid DNA, β-galactosidase activity per well; format: cell-based; conditions: CVI-P
Protocol: Transfer of plasmid DNA by various compounds was investigated by using CV-1P (African monkey green kidney fibroblasts cells) and D407 (human retinal pigment epithelial) cells.
The cells were cultured in Dulbecco's modified Eagle's medium (DMEM, Gibco), supplemented with 10% fetal bovine serum (FBS), penicillin/streptomycin (100 units/ml and 100 μg/ml respectively) and 2 mM L-glutamine for D 407 cell line. Cell cultures were maintained at 37° C. in a 7% CO2/air incubator. The cells were collected, counted and seeded in growth medium (100 μl) into 96-well culture plate, 20 000 cells per well. One day later the medium was replaced with fresh medium without serum (150 μl)
In the case of confluent CV1-P cells the medium (with of without serum) was changed on fourth day of cell growth before the transfection.
The complexes at different derivative/DNA charge ratios for transfection procedure were prepared just before use in 50 mM MES—50 mM HEPES—75 mM NaCl buffer, pH 7.2 in separate 96 well plates. One hour after changing the serum-free medium with 10% serum the complexes were added to the cells at […]. Dose of DNA per well was 0.6 μg. After 5 h the complexes were removed, the cells were washed with PBS, and the normal growth medium was added. After 45 h of incubation at 37° C. the cells were lysed with 2% Triton X 100, twice deep frozen and the β-galactosidase activity in each well was determined spectrofotometrically with ELx800 automated microplate reader (Bio-Tex Instruments Inc., Winooski, Vt. USA) by monitoring the hydrolysis of o-nitrophenylgalactopyranoside (oNPG) at 405 nm. Purified β-galactosidase from E.coli was used to construct a standard curve and to calculate […] activity in the transfected cells. […] Transfection efficiencies are given as percentage in comparison to transfection efficiency of Lipofectin^R.

plasmid DNA = assay: DNA condensation/complexation, EtBr displacement assay; format: binding
Protocol: The ability of the cationic amphiphiles to condense DNA was assessed with an EtBr displacement assay. Briefly, in 96 well plates plasmid DNA (0.6 μg per well) was reacted with 0.002% EtBr in 20 mM HEPES—150 mM NaCl buffer, pH 7.4 and fluorescence intensity was measured at 530 nm (excitation) and 590 nm (emission). Intercalation of EtBr molecules between the base pairs of the DNA double helix results in increased fluorescence signal. Immediately thereafter, the cationic liposomes were added to form complexes at different +/−charge ratios and the quenching of fluorescence intensity of EtBr was monitored. Condensation of DNA upon complexation with liposomes results in the displacement of EtBr from DNA and in decreased fluorescence signal. Fluorescence was measured using FL 500 microplate fluorescence reader (Bio-Tek Instruments Inc., Winooski, Vt., USA).
The values are expressed as percentage of the maximum fluorescence signal when EtBr bound to DNA in the absence of an amphiphile. Each data point is from at least triplicate experiment ±S.D.

CVI-P cells = assay: Cytotoxicity of amphiphile/DNA complexes, percentage of survived cells
[3] = amphiphile/DNA +/− charge ratio 0.5
[4] = amphiphile/DNA +/− charge ratio 1
[5] = amphiphile/DNA +/− charge ratio 2
[6] = amphiphile/DNA +/− charge ratio 4
[7] = amphiphile/DNA +/− charge ratio 8

Compound: Br.CCCOCCOC(=O)C1=C(C)NC(C)=C(C(=O)OCCOCCC)C1c1ccc[n+](CC(=O)c2ccccc2)c1.[Br-]
- melting point: 135 to 138 °C

Compound: Br.CCOC(=O)C1=C(C)NC(C)=C(C(=O)OCC)C1c1cc[n+](CC(=O)c2ccc3ccccc3c2)cc1.[Br-]
- melting point: 211 to 216 °C

Compound: Br.CCOC(=O)C1=C(C)NC(C)=C(C(=O)OCC)C1c1ccc[n+](CCCCCCCCCCC(=O)O)c1.[Br-]
- melting point: 134 to 136 °C

Compound: Br.CCOC(=O)C1=C(C)NC(C)=C(C(=O)OCC)C1c1ccc[n+](CCCCCCCCCCCC(=O)O)c1.[Br-]
- melting point: 152 to 156 °C

Compound: Br.CCOC(=O)C1=C(C)NC(C)=C(C(=O)OCC)C1c1ccc[n+](Cc2ccc([N+](=O)[O-])cc2)c1.[Br-]
- melting point: 212 to 213 °C (dec.)

Compound: CCOC(=O)C1=C(C)NC(C)=C(C(=O)OCC)C1c1ccc[n+](-c2ccc([N+](=O)[O-])cc2[N+](=O)[O-])c1.Cl.[Cl-]
- melting point: 178 to 180 °C

Compound: CC1=C(C(=O)OCc2ccc([N+](=O)[O-])cc2)C(c2ccc[n+](C)c2)C(C(=O)OCc2ccc([N+](=O)[O-])cc2)=C(C)N1.I.[I-]
- melting point: 202 to 203 °C

Compound: Br.CCCCCCCCCCCCCCCC[n+]1cccc(C2C(C(=O)OCc3ccc([N+](=O)[O-])cc3)=C(C)NC(C)=C2C(=O)OCc2ccc([N+](=O)[O-])cc2)c1.[Br-]
- melting point: 89 to 93 °C

Compound: Br.CCCCCCCCCCCCCCCC[n+]1ccc(C2C(C(=O)OCC)=C(C)NC(C)=C2C(=O)OCC)cc1.[Br-]
- melting point: 95 to 98 °C

Compound: Br.CCCCCCCCCCCCCCCC[n+]1ccccc1C1C(C(=O)OCC)=C(C)NC(C)=C1C(=O)OCC.[Br-]
- melting point: 117 to 121 °C

Compound: Br.CCCOCCOC(=O)C1=C(C)NC(C)=C(C(=O)OCCOCCC)C1c1ccc[n+](CC(=O)OCC)c1.[Br-]
- melting point: 144 to 146 °C

Compound: Br.CCOC(=O)C[n+]1cccc(C2C(C(=O)OC3CC(C)CCC3C(C)C)=C(C)NC(C)=C2C(=O)OC2CC(C)CCC2C(C)C)c1.[Br-] (centres unmarked)
- melting point: 180 °C (dec.)

Compound: Br.CCOC(=O)C[n+]1ccc(C2C(C(=O)OCC)=C(C)NC(C)=C2C(=O)OCC)cc1.[Br-]
- melting point: 140 to 143 °C

Compound: Br.CCOC(=O)C[n+]1ccccc1C1C(C(=O)OCC)=C(C)NC(C)=C1C(=O)OCC.[Br-]
- melting point: 197 to 199 °C

Compound: CCCCCCCCCCCCOC(=O)C1=C(C)NC(C)=C(C(=O)OCCCCCCCCCCCC)C1c1ccc[n+](C)c1.I.[I-] [V, 3′,5′-Bis(dodecyloxycarbonyl)-1′,4′-dihydro-1,2′,6′-trimethyl-3,4′-bipyridinium iodide]
- transfection efficiency [1, 3]: 0,26 β-galactosidase units per well
- transfection efficiency [1, 4]: 8,10 β-galactosidase units per well
- transfection efficiency [1, 5]: 8,78 β-galactosidase units per well
- transfection efficiency [1, 6]: 0,55 β-galactosidase units per well
- transfection efficiency [1, 7]: 0,33 β-galactosidase units per well
- cytotoxicity as a percentage of survived cells (D 407 cells; [3]): 85,27%
- cytotoxicity as a percentage of survived cells (D 407 cells; [4]): 66,05%
- cytotoxicity as a percentage of survived cells (D 407 cells; [5]): 55,61%
- cytotoxicity as a percentage of survived cells (D 407 cells; [6]): 9,14%
- cytotoxicity as a percentage of survived cells (D 407 cells; [7]): 0,28%
- transfection efficiency [2, 3]: 0,48 β-galactosidase units per well
- transfection efficiency [2, 4]: 0,69 β-galactosidase units per well
- transfection efficiency [2, 5]: 27,19 β-galactosidase units per well
- transfection efficiency [2, 6]: 5,95 β-galactosidase units per well
- transfection efficiency [2, 7]: 1,4 β-galactosidase units per well
- complexation, percentage of the maximum fluorescence signal when EtBr bound to DNA in the absence of an amphiphile (plasmid DNA; [3]): 88,8%
- complexation, percentage of the maximum fluorescence signal when EtBr bound to DNA in the absence of an amphiphile (plasmid DNA; [4]): 80,33%
- complexation, percentage of the maximum fluorescence signal when EtBr bound to DNA in the absence of an amphiphile (plasmid DNA; [5]): 75,17%
- complexation, percentage of the maximum fluorescence signal when EtBr bound to DNA in the absence of an amphiphile (plasmid DNA; [6]): 71,93%
- complexation, percentage of the maximum fluorescence signal when EtBr bound to DNA in the absence of an amphiphile (plasmid DNA; [7]): 72,4%
- cytotoxicity as a percentage of survived cells (CVI-P cells; [3]): 100,21%
- cytotoxicity as a percentage of survived cells (CVI-P cells; [4]): 87,18%
- cytotoxicity as a percentage of survived cells (CVI-P cells; [5]): 71,79%
- cytotoxicity as a percentage of survived cells (CVI-P cells; [6]): 40,55%
- cytotoxicity as a percentage of survived cells (CVI-P cells; [7]): 8,67%

Compound: CCCCCCCCCCCCCCOC(=O)C1=C(C[n+]2ccccc2)NC(C[n+]2ccccc2)=C(C(=O)OCCCCCCCCCCCCCC)C1c1ccccc1.[Br-].[Br-] [XXIV, 1,1′-{[1,4-Dihydro-4-phenyl-3,5-bis(tetradecyloxycarbonyl)-pyridine-2,6-diyl]dimethylene}bispyridinium dibromide]
- transfection efficiency [1, 3]: 0,20 β-galactosidase units per well
- transfection efficiency [1, 4]: 0,44 β-galactosidase units per well
- transfection efficiency [1, 5]: 0,53 β-galactosidase units per well
- transfection efficiency [1, 6]: 15,04 β-galactosidase units per well
- transfection efficiency [1, 7]: 3,61 β-galactosidase units per well
- cytotoxicity as a percentage of survived cells (D 407 cells; [3]): 97,59%
- cytotoxicity as a percentage of survived cells (D 407 cells; [4]): 88,59%
- cytotoxicity as a percentage of survived cells (D 407 cells; [5]): 98,83%
- cytotoxicity as a percentage of survived cells (D 407 cells; [6]): 86,99%
- cytotoxicity as a percentage of survived cells (D 407 cells; [7]): 51,24%
- transfection efficiency [2, 3]: 0,63 β-galactosidase units per well
- transfection efficiency [2, 4]: 2,48 β-galactosidase units per well
- transfection efficiency [2, 5]: 15,46 β-galactosidase units per well
- transfection efficiency [2, 6]: 47,78 β-galactosidase units per well
- transfection efficiency [2, 7]: 9,48 β-galactosidase units per well
- complexation, percentage of the maximum fluorescence signal when EtBr bound to DNA in the absence of an amphiphile (plasmid DNA; [3]): 78,91%
- complexation, percentage of the maximum fluorescence signal when EtBr bound to DNA in the absence of an amphiphile (plasmid DNA; [4]): 63,92%
- complexation, percentage of the maximum fluorescence signal when EtBr bound to DNA in the absence of an amphiphile (plasmid DNA; [5]): 54,5%
- complexation, percentage of the maximum fluorescence signal when EtBr bound to DNA in the absence of an amphiphile (plasmid DNA; [6]): 50,0%
- complexation, percentage of the maximum fluorescence signal when EtBr bound to DNA in the absence of an amphiphile (plasmid DNA; [7]): 49,62%
- cytotoxicity as a percentage of survived cells (CVI-P cells; [3]): 96,17%
- cytotoxicity as a percentage of survived cells (CVI-P cells; [4]): 98,12%
- cytotoxicity as a percentage of survived cells (CVI-P cells; [5]): 86,72%
- cytotoxicity as a percentage of survived cells (CVI-P cells; [6]): 88,19%
- cytotoxicity as a percentage of survived cells (CVI-P cells; [7]): 48,08%

Compound: CCCCCCCCCCCCCCCCOC(=O)C1=C(C[n+]2ccccc2)NC(C[n+]2ccccc2)=C(C(=O)OCCCCCCCCCCCCCCCC)C1c1ccccc1.[Br-].[Br-] [XXV, 1,1′-[(3,5-Dihexadecyloxycarbonyl-4-phenyl-1,4-dihydropyridine-2,6-diyl)dimethylene]bispyridinium dibromide]
- transfection efficiency [1, 3]: 0,57 β-galactosidase units per well
- transfection efficiency [1, 4]: 0,31 β-galactosidase units per well
- transfection efficiency [1, 5]: 066 β-galactosidase units per well
- transfection efficiency [1, 6]: 2,05 β-galactosidase units per well
- transfection efficiency [1, 7]: 2,47 β-galactosidase units per well
- cytotoxicity as a percentage of survived cells (D 407 cells; [3]): 97,52%
- cytotoxicity as a percentage of survived cells (D 407 cells; [4]): 97,73%
- cytotoxicity as a percentage of survived cells (D 407 cells; [5]): 101,48%
- cytotoxicity as a percentage of survived cells (D 407 cells; [6]): 89,12%
- cytotoxicity as a percentage of survived cells (D 407 cells; [7]): 62,05%
- transfection efficiency [2, 3]: 0,23 β-galactosidase units per well
- transfection efficiency [2, 4]: 0,24 β-galactosidase units per well
- transfection efficiency [2, 5]: 17,5 β-galactosidase units per well
- transfection efficiency [2, 6]: 15,15 β-galactosidase units per well
- transfection efficiency [2, 7]: 9,04 β-galactosidase units per well
- complexation, percentage of the maximum fluorescence signal when EtBr bound to DNA in the absence of an amphiphile (plasmid DNA; [3]): 94,16%
- complexation, percentage of the maximum fluorescence signal when EtBr bound to DNA in the absence of an amphiphile (plasmid DNA; [4]): 89,06%
- complexation, percentage of the maximum fluorescence signal when EtBr bound to DNA in the absence of an amphiphile (plasmid DNA; [5]): 83,1%
- complexation, percentage of the maximum fluorescence signal when EtBr bound to DNA in the absence of an amphiphile (plasmid DNA; [6]): 77,14%
- complexation, percentage of the maximum fluorescence signal when EtBr bound to DNA in the absence of an amphiphile (plasmid DNA; [7]): 71,37%
- cytotoxicity as a percentage of survived cells (CVI-P cells; [3]): 92,82%
- cytotoxicity as a percentage of survived cells (CVI-P cells; [4]): 99,29%
- cytotoxicity as a percentage of survived cells (CVI-P cells; [5]): 101,03%
- cytotoxicity as a percentage of survived cells (CVI-P cells; [6]): 107,03%
- cytotoxicity as a percentage of survived cells (CVI-P cells; [7]): 100,65%
